Converted amounts (≈) assume the structure as drawn.
Tests used:
[1] = system: Staphylococcus aureus (Smith strain ATCC 13709); assay: Staphylococcus aureus mouse protection assay; format: in vivo; details: Staph conc. 10^6 IP in 10% mucin, treatments at 1 hour and 3 hour post infection
Protocol: Two of the novel aminoglycoside compounds of the invention were examined for their anitbacterial activity against staphylococcus aureus. The mice were infected IP with 0.5 ml […] staphylococcus aureus in 10% mucin. There were 10 mice in each treated group with treatments at 1 hour and 3 hour post infection. The Ibis compounds (IBIS00561085 R4═R5═CH3 and IBIS00561141 R4═H, R5═(CH2)2C6H5) were used at 75 mg/kg, 37.5 mg/kg, 18.8 mg/kg, 9.4 mg/kg, 4.7 mg/kg, 2.3 mg/kg, 1.17 mg/kg and 0.5 mg/kg. Amakacin, Paromomycin and Neomycin were used as the positive controls at concentration of 2 mg/kg, 1 mg/kg and 0.5 mg/kg.

18S = 18S Kd by FTICR mass spectrometry; format: binding
Protocol: (§1) Was performed according to the published report; […]-Lowery, […].; Mohan, […]. et al. Characterization of Low Affinity Complexes Between RNA and Small Molecules Using Electrospray Ionization Mass Spectrometry. J. Am. Chem. […] Screening is performed by measuring the formation of non-covalent complexes between a single ligand or ligand mixture and the appropriate RNA target, along with suitable control structured RNA target(s) simultaneously using a 9.4 T FT-ICR mass spectrometer as detector. Full experimental details of the assay have been described in related literature ([…]-Lowery, et al. in TrAC, Trends Anal. […] The abundances were integrated from the respective ions for free RNA and the ligand-RNA complex. […] The peak ratios are measured at each concentration, then a plot of complex/free RNA versus concentration of ligand added is fitted to a second (or higher) order binding polynomial to determine the KD.

16S = assay: Measurement of 16S Kd by FTICR mass spectrometry; format: binding
Protocol: as §1

[2] = system: E. coli S30 bacterial extract (pBest Luc luciferase transcription/translation); assay: Coupled bacterial transcription/translation assay (T/T); format: biochemical; details: luciferase reporter, 35 minutes at 37° C., read-out: Trans/Trans IC50
Protocol: The DNA template, pBest Luc™ (Promega), is a plasmid containing a reporter gene for firefly luciferase fused to a strong tac promoter and ribosome binding site. Messenger RNA from 1 μg pBestLuc was transcribed and translated in E. coli S30 bacterial extract in the presence or absence of test compound. Compounds were tested in a black 96 well microtiter plate with an assay volume of […]. Each test well contained: 5 μL test compound, 13 μL S30 premix (Promega), 4 μL 10× complete amino acid mix (1 mM each), 5 μL E. coli S30 extract and 8 μL of 0.125 μg/μL pBest Luc™. The transcription/translation reaction was incubated for 35 minutes at 37° C. followed by detection of functional luciferase with the addition of 30 μL LucLite™ (Packard). Light output was quantitated on a Packard TopCount.

E. Coli. = assay: Minimum inhibitory concentration (MIC), E. coli; format: cell-based; details: range of concentration, 20-24 hours at 37° C., A595
Protocol: (§2) The assays are carried out in 150 μL volume in duplicate in 96-well clear flat-bottom plates. The bacterial suspension from an overnight culture growth in appropriate medium is added to a solution of test compound in 2.5% DMSO in water. Final bacterial inoculum is approximately 10^2-10^3 CFU/well. The percentage growth of the bacteria in test wells relative to that observed for a control wells containing no compound is determined by measuring absorbance at 595 nm (A595) after 20-24 hours at 37° C. The MIC is determined as a range of concentration where complete inhibition of growth is observed at the higher concentration and bacterial cells are viable at the lower concentration. Both ampicillin and tetracycline are used as antibiotic positive controls in each screening assay.

S. Aureus = assay: Minimum inhibitory concentration (MIC), S. aureus; format: cell-based; details: range of concentration, 20-24 hours at 37° C., A595
Protocol: as §2

Row | Structure (SMILES) | # Dead mice/Total mice in group ([1]; 0.5 mg/kg) | # Dead mice/Total mice in group ([1]; 1 mg/kg) | # Dead mice/Total mice in group ([1]; 2 mg/kg) | # Dead mice/Total mice in group ([1]; 4.5 mg/kg) | # Dead mice/Total mice in group ([1]; 9 mg/kg) | # Dead mice/Total mice in group ([1]; 18 mg/kg) | # Dead mice/Total mice in group ([1]; 37 mg/kg) | # Dead mice/Total mice in group ([1]; 75 mg/kg) | Kd (18S) [nM] | Kd (16S) [nM] | IC50 [2] [nM] | MIC E. Coli. (E. Coli.) [µM] | MIC S. Aureus (S. Aureus) [µM] | MIC (E. Coli.; Escherichia coli) [µM] | MIC (S. Aureus; Staphylococcus aureus) [µM]
1 | NCC1OC(OC2C(CO)OC(OC3C(O)C(N)CC(N)C3OC3OC(CNCCc4ccccc4)C(O)C(O)C3N)C2O)C(N)C(O)C1O (stereo not drawn) [IBIS00561141] | 7/10 (10% Mucin). | 0/10 (10% Mucin) | 0/10 (10% Mucin) | 0/10 (10% Mucin) | 0/10 (10% Mucin) | 0/10 (10% Mucin) | 0/10 (10% Mucin) | 0/10 (10% Mucin) | 2160 | 496 | 200 | 1.25 to 2.5 | 0.3125 to 0.625 | – | –
2 | NC[C@@H]1O[C@H](O[C@H]2[C@@H](O)[C@H](O[C@@H]3[C@@H](O)[C@H](N)C[C@H](N)[C@H]3O[C@H]3O[C@H](CN4CCOCC4)[C@@H](O)[C@H](O)[C@H]3N)O[C@@H]2CO)[C@H](N)[C@@H](O)[C@@H]1O [IBIS00561142] | – | – | – | – | – | – | – | – | 3000 | 3640 | 349 | – | – | 20 to 40 (≈ 13.7 to 27.4 µg/mL) | 10 to 20 (≈ 6.85 to 13.7 µg/mL)

From patent publication US20080214845A1, “ANTIBACTERIAL 6'-MODIFIED 4,5-SUBSTITUTED AMINOGLYCOSIDE ANALOGS” (priority 2005, published 2008)
